Values quoted from earlier work as cited in patent publication US20250345266A1, “READY-TO-INFUSE OXYTOCIN COMPOSITIONS” (AMNEAL PHARMACEUTICALS LLC, priority 2024, published 2025).

half-life: about 3 minutes
Structure (SMILES): CC[C@H](C)[C@@H]1NC(=O)[C@H](Cc2ccc(O)cc2)NC(=O)[C@@H](N)CSSC[C@@H](C(=O)N2CCC[C@H]2C(=O)N[C@@H](CC(C)C)C(=O)NCC(N)=O)NC(=O)[C@H](CC(N)=O)NC(=O)[C@H](CCC(N)=O)NC1=O [Oxytocin]
